This note sets out measurements from patent publication US9005673B2, “Preservative and additive for food and feed” (priority 2005, dated 2015).

The nature of this series: Contact of acid solutions with human skin. As to conditions: solution with a pH of less than 0.5.

In the case of `O=S(=O)(O)O` [sulfuric acid], the “irritation of a hand put into the solution” value is given as “an irritation would occur”.
